Measurements reported in PubChem BioAssay (NCI).
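A five-concentration, 48-hour dose response in 96-well plates underlies each endpoint, interpolated linearly between surrounding concentrations. TGI is the concentration that stops growth completely.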

What was measured:
Experiment in all cases: growth of human tumour cells (NCI), 48 h
786-0 renal = tested on: 786-0 renal
SK-MEL-5 melanoma = tested on: SK-MEL-5 melanoma
OVCAR-4 ovarian = tested on: OVCAR-4 ovarian
SK-MEL-28 melanoma = tested on: SK-MEL-28 melanoma
DLD-1 colon = tested on: DLD-1 colon
HOP-18 NSCLC = tested on: HOP-18 NSCLC
LXFL 529 NSCLC = tested on: LXFL 529 NSCLC
M19-MEL melanoma = tested on: M19-MEL melanoma
DMS 273 small cell lung = tested on: DMS 273 small cell lung
KM20L2 colon = tested on: KM20L2 colon

| SMILES | TGI (786-0 renal) | TGI (SK-MEL-5 melanoma) | TGI (OVCAR-4 ovarian) | TGI (SK-MEL-28 melanoma) | TGI (DLD-1 colon) | TGI (HOP-18 NSCLC) | TGI (LXFL 529 NSCLC) | TGI (M19-MEL melanoma) | TGI (DMS 273 small cell lung) | TGI (KM20L2 colon) |
| --- | --- | --- | --- | --- | --- | --- | --- | --- | --- | --- |
| OC(CC(O)(C(F)(F)F)C(F)(F)F)C(O)c1ccco1 (stereo not drawn) | > 10 µM | > 10 µM | > 10 µM | > 10 µM |  |  |  |  |  |  |
| O=Nc1c(NO)ccc2nn(-c3ccccc3)nc12 | > 100 µM | 10.8 µM | > 100 µM | 43.3 µM |  |  |  |  |  |  |
| CCOC(=O)c1cc(Br)c(-c2onc(C)c2Br)n1C | 86.1 µM | 32.4 µM | > 100 µM | > 100 µM |  |  |  |  |  |  |
| COc1cc2c(cc1OC)C(=O)/C(=C/c1ccc([N+](=O)[O-])cc1)CC2 | > 10 µM | > 10 µM | > 10 µM | > 10 µM |  |  |  |  |  |  |
| COc1ccc(C(c2ccc3c(c2)OCO3)N2C(=O)CCC2C(=O)O)cc1 (stereo not drawn) | > 100 µM | > 100 µM | > 100 µM | > 100 µM |  |  |  |  |  |  |
| COc1ccc(C2C(C=O)C(N3CCN(C)CC3)=Nc3nc4ccccc4n32)cc1 (stereo not drawn) | > 100 µM | 31.5 µM | 48.2 µM | 34.8 µM |  |  |  |  |  |  |
| COc1cccc(C2c3cc4c(cc3OC(N3CCCCC3)C2C)OCO4)c1OC (stereo not drawn) | > 100 µM | 21.5 µM |  | 46.7 µM |  |  |  |  |  |  |
| COc1ccc(C(SCC(N)C(=O)O)(c2ccc(OC)cc2)c2ccc(OC)cc2)cc1 (stereo not drawn) | 20.3 µM |  | 27.7 µM | 16.8 µM |  |  |  |  |  |  |
| O=C1C[C@H](CCC(=O)OCc2ccccc2)NC(=O)C[C@H](CCC(=O)OCc2ccccc2)NC(=O)C[C@H](CCC(=O)OCc2ccccc2)N1 | > 100 µM | > 100 µM | > 100 µM | > 100 µM |  |  |  |  |  |  |
| CCO/C=C(\C(=O)OC)S(=O)(=O)c1ccc(C)cc1 | > 100 µM | > 100 µM | > 100 µM | > 100 µM |  |  |  |  |  |  |
| O=C1COCCN1C(=O)c1ccccc1Cl | > 100 µM | > 100 µM | > 100 µM | > 100 µM |  |  |  |  |  |  |
| NC(CC(=O)O)(Cc1ccccc1)C(=O)O (stereo not drawn) | > 100 µM | > 100 µM | > 100 µM | > 100 µM |  |  |  |  |  |  |
| O=C(O)C1=NN(c2ccc(S(=O)(=O)O)cc2)C2(C1)SCC(=O)N2c1nc2ccccc2s1 (stereo not drawn) | > 100 µM | > 100 µM | > 100 µM | > 100 µM |  |  |  |  |  |  |
| Fc1c(F)c(C(F)(F)F)c(F)c(F)c1N/N=C/c1cn(Cc2ccccc2)c2ccccc12 | 66.8 µM | 36 µM | 78.9 µM | > 100 µM |  |  |  |  |  |  |
| Cc1ccc(C2SCC(=O)N2NC(=O)c2ccncc2)s1 (stereo not drawn) | > 100 µM | > 100 µM | > 100 µM | > 100 µM |  |  |  |  |  |  |
| CN1CCc2cc(N)cc3c2C1Cc1ccc2c(c1-3)OCO2 (stereo not drawn) | 99 µM | 49.8 µM | > 90.4 µM | > 100 µM |  |  |  |  |  |  |
| CC[C@H]1C=CCC[C@@]2(C[C@@H]3CC[C@H]4[C@H](C(=O)OCCCCCCCCCCCCCCCC(=O)N(CCCN)C[C@@H](O)CCN)[C@]5(CCC[C@@H](C)O5)NC(=[N+]34)N2)O1 | 1.86 µM | 1.31 µM | 2.44 µM | 3.98 µM |  |  |  |  |  |  |

| SMILES | TGI (786-0 renal) | TGI (SK-MEL-5 melanoma) | TGI (OVCAR-4 ovarian) | TGI (SK-MEL-28 melanoma) | TGI (DLD-1 colon) | TGI (HOP-18 NSCLC) | TGI (LXFL 529 NSCLC) | TGI (M19-MEL melanoma) | TGI (DMS 273 small cell lung) | TGI (KM20L2 colon) |
| --- | --- | --- | --- | --- | --- | --- | --- | --- | --- | --- |
| CC1C(O)Oc2cc3c(cc2C1c1ccccc1O)OCO3 (stereo not drawn) | > 100 µM | 98.5 µM |  | 84 µM |  |  |  |  |  |  |
| O=C(Nc1ccc(Cl)cc1)NS(=O)(=O)c1c(-c2ccccc2)oc2ccccc2c1=O | > 100 µM | > 100 µM | > 100 µM | > 100 µM |  |  |  |  |  |  |
| CN(C)c1nc(=NCc2cccnc2)ss1 | > 10 µM | > 10 µM | > 10 µM | > 10 µM |  |  |  |  |  |  |
| O=C(/C=C/c1ccc2c(c1)OCO2)CC(=O)/C=C/c1ccc2c(c1)OCO2 | > 100 µM | > 100 µM | 68.5 µM |  |  |  |  |  |  |  |
| CCN(CC)CCCCC1CCN(CC(=O)N2c3cc(Cl)ccc3NC(=O)CC2C)CC1 (stereo not drawn) | > 100 µM | > 100 µM | > 100 µM | > 100 µM | > 100 µM | > 100 µM | > 100 µM | > 100 µM | > 100 µM | > 100 µM |
| Fc1ccc2c3c([nH]c2c1)CCNC3 | > 100 µM | > 100 µM | > 100 µM | > 100 µM |  |  |  |  |  |  |
| CCn1c2ccccc2c2cc(NC(=O)c3c(NCCNCCO)nc(=O)[nH]c3C)ccc21 | > 100 µM | > 100 µM | > 100 µM | > 100 µM |  |  |  |  |  |  |
| CCOP(=O)(OCC)C(Nc1ccc(C(=O)O)cc1)c1ccc(C(Nc2ccc(C(=O)O)cc2)P(=O)(OCC)OCC)cc1 (stereo not drawn) | > 100 µM | > 100 µM | > 100 µM | > 100 µM |  |  |  |  |  |  |
| COC(=O)c1ccc(NCC2=CC(=O)C=CC2=O)cc1 | 7.86 µM | 32.5 µM | 26.5 µM | 30.2 µM |  |  |  |  |  |  |
| N#CCc1nc(-c2cc3c(ccc4ccccc43)oc2=O)cs1 | 51.6 µM | > 100 µM | 60.4 µM | > 100 µM |  |  |  |  |  |  |
| COC(=O)[C@H](COC(=O)/C=C/c1ccc(OC(C)=O)c(OC(C)=O)c1)NC(=O)/C=C/c1ccc(OC(C)=O)c(OC(C)=O)c1 | 32.1 µM | 31.6 µM | 38.9 µM | 94 µM |  |  |  |  |  |  |
| CCOC(=O)c1ccc(Nc2nc3cc(C(F)(F)F)ccc3nc2C(=O)OCC)cc1 | 87 µM | 89.3 µM |  | > 100 µM |  |  |  |  |  |  |
| COC(=O)[C@@H]1OC(C)(c2ccccc2)O[C@H]1C(=O)OC | > 100 µM | > 100 µM | > 100 µM | > 100 µM |  |  |  |  |  |  |
| Cc1cc(O)c2c(c1)CC(O)C1=C2C(=O)c2c(O)ccc(OC3CC(O)C(OC4CC(OC5CCC(O)C(C)O5)C(O)C(C)O4)C(C)O3)c2C1=O (stereo not drawn) | 3.47 µM | 2.78 µM | 3.45 µM | 3.86 µM |  |  |  |  |  |  |
| CCOP(=O)(OCC)C(F)(F)Cc1cnc(C)c2c1COC(C)(C)O2 | > 10 µM | > 10 µM | > 10 µM | > 10 µM |  |  |  |  |  |  |
| N#CC(c1ccccc1)N(CCOCCOCCN(C(=O)c1cccc2ccccc12)C(C#N)c1ccccc1)C(=O)c1cccc2ccccc12 (stereo not drawn) | > 100 µM | > 100 µM | > 100 µM | > 100 µM |  |  |  |  |  |  |
